Measured values from the supplement of paper PMC11208160.

Assay: recombinant barcode read abundance after kanamycin selection (control-corrected) (log10(CPM+1)); higher = more efficient recombination; sequences stand for … in AGTGCAGAGAAAATCGGCCAGTTTTCTCTGCCTGCAGTCCGCATGCCGT…AGATTTATGCAGCGGACTGCCTTTCTCCCAAAGTGATAAACCGGACAGTATCATGGACCGGTTTTCCCGGTAATCCGTATTTGCAAGGTTGGTTTCACT; site = the 11-nt target
Method in brief: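 Oligos holding a promoter, target, barcode and the J23119-driven first 104 bases of the bridge RNA were Gibson-cloned into a vector that supplied the other 73 bp plus a T7-inducible recombinase. This library was co-electroporated with a donor plasmid into E. coli. Two replicates went on chloramphenicol/ampicillin LB agar (control) and two on chloramphenicol/ampicillin/kanamycin with 0.1 mM IPTG. Recombination efficiency is read from averaged, control-corrected barcode counts per million at recombinant junctions, reported as log10(CPM+1).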
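Further: IS621 recombinase and bridge RNA in Escherichia coli cells.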

Sequence | recombinant barcode read abundance (log10)
CGCAAATCTTGGGTTCTAACCTGTTGCCT (site CGCAAATCTAG) | 0.0815
CGCAAATCTTGGGTTCTAACCTGTTGCCT (site CGGAAATCTAG) | 0.0907
CGCAAATCTTGGGTTCTAACCTGTTGCCT (site CGTAAATCTAG) | 0.166
CGCCACCCTTGGGTTCTAACCTGTTGCCT (site CGCCACCCTAG) | 0.165
CGCCACCCTTGGGTTCTAACCTGTTGCCT (site CTGCACCCTAG) | 0.0944
CGCCCGCCTTGGGTTCTAACCTGTTGCCT (site AGCCCGCCTAG) | 0.165
CGCCCGCCTTGGGTTCTAACCTGTTGCCT (site CGCCCGCCTAG) | 0.0631
CGCCCGCCTTGGGTTCTAACCTGTTGCCT (site GGCCCGCCTAG) | 0.109
CGCCCGCCTTGGGTTCTAACCTGTTGCCT (site TGCCCGCCTAG) | 0.0262
CGCCCTACTTGGGTTCTAACCTGTTGCTT (site CGCCCTACTAA) | 0.311
CGCCCTACTTGGGTTCTAACCTGTTGCTT (site CGCCTAACTAA) | 0.491
CGCCTAACTTGGGTTCTAACCTGTTGCTT (site CGCCCTACTAA) | 0.0705
CGCCTAACTTGGGTTCTAACCTGTTGCTT (site CGCCTAACTAA) | 0.126
CGCCTCCCTTGGGTTCTAACCTGTTGCAT (site CGCCTCCCTAT) | 0.159
CGCCTCCCTTGGGTTCTAACCTGTTGCAT (site GGCCTCCCTAT) | 0
CGCGATCCTTGGGTTCTAACCTGTTGCGT (site AGCGACCCTAC) | 0.0431
CGCGATCCTTGGGTTCTAACCTGTTGCGT (site CGCGATCCTAC) | 0.834
CGCGCTCCTTGGGTTCTAACCTGTTGCCT (site CGCGATCCTAG) | 0.0445
CGCGCTCCTTGGGTTCTAACCTGTTGCCT (site CGCGCTCCTAG) | 0.245
CGCGCTCCTTGGGTTCTAACCTGTTGCCT (site CGCGGTCCTAG) | 0.0941
CGCGCTCCTTGGGTTCTAACCTGTTGCCT (site CGCGTTCCTAG) | 0.0658
CGCTTACCTTGGGTTCTAACCTGTTGCCT (site AGCTTACCTAG) | 0.143
CGCTTACCTTGGGTTCTAACCTGTTGCCT (site CGCTTACCTAG) | 0.0899
CGCTTACCTTGGGTTCTAACCTGTTGCCT (site GGCTTACCTAG) | 0.0208
CGCTTACCTTGGGTTCTAACCTGTTGCCT (site TGCTTACCTAG) | 0.192
CGCTTGTCTTGGGTTCTAACCTGTTGCCG (site CGCTTGTCTCG) | 0.134

Sequence | recombinant barcode read abundance (log10)
CGCTTGTCTTGGGTTCTAACCTGTTGCCG (site CTCTTGTCTTG) | 0.0615
CGGACGCCTTGGGTTCTAACCTGTTGCCT (site CGGACGACTAG) | 0.352
CGGACGCCTTGGGTTCTAACCTGTTGCCT (site CGGACGCCTAG) | 0.892
CGGACGCCTTGGGTTCTAACCTGTTGCCT (site CGGACGGCTAG) | 1.51
CGGACGCCTTGGGTTCTAACCTGTTGCCT (site CGGACGTCTAG) | 0.25
CGGACTTCTTGGGTTCTAACCTGTTGCCT (site CAGACTTCTAG) | 0.182
CGGACTTCTTGGGTTCTAACCTGTTGCCT (site CCGACTTCTAG) | 0.049
CGGACTTCTTGGGTTCTAACCTGTTGCCT (site CGGACTTCTAG) | 0.0521
CGGACTTCTTGGGTTCTAACCTGTTGCCT (site CTGACTTCTAG) | 0.0412
CGGAGAGCTTGGGTTCTAACCTGTTGCCT (site CAGAGAGCTAG) | 0.402
CGGAGAGCTTGGGTTCTAACCTGTTGCCT (site CCGAGAGCTAG) | 0.433
CGGAGAGCTTGGGTTCTAACCTGTTGCCT (site CGGAGAGCTAG) | 1.83
CGGAGAGCTTGGGTTCTAACCTGTTGCCT (site CTGAGAGCTAG) | 0
CGGAGCCCTTGGGTTCTAACCTGTTGCCT (site CAAAGCCCTAG) | 0.0117
CGGAGCCCTTGGGTTCTAACCTGTTGCCT (site CGGAGCCCTAG) | 1.27
CGGATCCCTTGGGTTCTAACCTGTTGCCT (site CAGATCCCTAG) | 0.555
CGGATCCCTTGGGTTCTAACCTGTTGCCT (site CCGATCCCTAG) | 0.159
CGGATCCCTTGGGTTCTAACCTGTTGCCT (site CGGATCCCTAG) | 1.39
CGGATCCCTTGGGTTCTAACCTGTTGCCT (site CTGATCCCTAG) | 0.284
CGGCGTACTTGGGTTCTAACCTGTTGCCT (site CGACGTACTAG) | 0.14
CGGCGTACTTGGGTTCTAACCTGTTGCCT (site CGCCGTACTAG) | 0.103
CGGCGTACTTGGGTTCTAACCTGTTGCCT (site CGGCGTACTAG) | 0.959
CGGCGTACTTGGGTTCTAACCTGTTGCCT (site CGTCGTACTAG) | 0.069
CGGCGTCCTTGGGTTCTAACCTGTTGCCT (site CGGCGTCCTAG) | 1.24
CGGCGTCCTTGGGTTCTAACCTGTTGCCT (site CGGCGTCCTCG) | 0.0739
CGGCGTCCTTGGGTTCTAACCTGTTGCTA (site CGGAGTCCTTA) | 0.0265

Sequence | recombinant barcode read abundance (log10)
CGGCGTCCTTGGGTTCTAACCTGTTGCTA (site CGGCGTCCTTA) | 0.452
CGGCGTCCTTGGGTTCTAACCTGTTGCTA (site CGGGGTCCTTA) | 0.113
CGGCGTCCTTGGGTTCTAACCTGTTGCTA (site CGGTGTCCTTA) | 0.42
CGGCTACCTTGGGTTCTAACCTGTTGCCT (site CAGCTACCTAG) | 0.194
CGGCTACCTTGGGTTCTAACCTGTTGCCT (site CCGCTACCTAG) | 0.13
CGGCTACCTTGGGTTCTAACCTGTTGCCT (site CGGCTACCTAG) | 1.96
CGGCTACCTTGGGTTCTAACCTGTTGCCT (site CTGCTACCTAG) | 0.429
CGGCTCACTTGGGTTCTAACCTGTTGCTA (site CGGCACACTAA) | 0.0598
CGGCTCACTTGGGTTCTAACCTGTTGCTA (site CGGCTCACTTA) | 2.31
CGGCTGACTTGGGTTCTAACCTGTTGCCT (site CGGCTCACTAG) | 0.446
CGGCTGACTTGGGTTCTAACCTGTTGCCT (site CGGCTGACTAG) | 1.46
CGGGCCTCTTGGGTTCTAACCTGTTGCTA (site CGGGCCTCTAA) | 0.185
CGGGCCTCTTGGGTTCTAACCTGTTGCTA (site CGGGCCTCTCA) | 0
CGGGCCTCTTGGGTTCTAACCTGTTGCTA (site CGGGCCTCTGA) | 1.27
CGGGCCTCTTGGGTTCTAACCTGTTGCTA (site CGGGCCTCTTA) | 2.38
CGGGCCTCTTGGGTTCTAACCTGTTGCTT (site CGGGCCTCTAA) | 2.03
CGGGCCTCTTGGGTTCTAACCTGTTGCTT (site CGGGCCTCTCA) | 0.148
CGGGCCTCTTGGGTTCTAACCTGTTGCTT (site CGGGCCTCTGA) | 0.469
CGGGCCTCTTGGGTTCTAACCTGTTGCTT (site CGGGCCTCTTA) | 0.336
CGGGCGCCTTGGGTTCTAACCTGTTGCGG (site CGGCCGACTCC) | 0.0157
CGGGCGCCTTGGGTTCTAACCTGTTGCGG (site CGGGCGCCTCC) | 2.14
CGGGTGCCTTGGGTTCTAACCTGTTGCCT (site CAGGTGCCTAG) | 0.379
CGGGTGCCTTGGGTTCTAACCTGTTGCCT (site CCGGTGCCTAG) | 0.717
CGGGTGCCTTGGGTTCTAACCTGTTGCCT (site CGGGTGCCTAG) | 1.66
CGGGTGCCTTGGGTTCTAACCTGTTGCCT (site CTGGTGCCTAG) | 0.0879
